3 molecules from patent publication US20240226122A9, “TREATMENT OF GASTROINTESTINAL DISORDERS” (Greenspace Labs, Inc., priority 2022, published 2024) can be followed below.

Each structure is given as a SMILES string.

The data set is described as follows: Micro evaporation screening, re-dissolution of API:polymer matrices. Format: physicochemical. As to the method:
Micro evaporation screening experiments were done by dissolving API and polymer in an organic solvent and mixed in centrifuge tubes. Then the solvent was removed using vacuum concentrator. Samples were then mixed for 4, 10, and 30 minutes using phosphate buffer pH 6.8 as a reconstitution medium. For Eudragit S100 phosphate buffer pH 7.4 was used as a reconstitution media, citrate buffer pH 4.5 was used for Eudragit EPO. Phosphate buffer pH 6.8 was used for the rest of the polymers. Samples were mixed for 4, 10, and 30 minutes. Analysis was done by UV spectrometry to measure re-dissolution behavior of polymer system.
Several organic solvents were screened for the micro evaporation screening trials including acetone, tetrahydrofuran, dichloromethane, methanol, and ethanol.
Round 1 matrix Screening • 30:70 API:Soluplus • 30:70 API:Eudragit EPO • 30:70 API:Kollidon VA 64 • 25:75 API:PVP K30 • 25:75 API:Eudragit S100
Round 2 matrix screening with surfactants
Surfactants/solubilizers (5-10%) were screened for enhancement of spring-parachute effect, which is a strategy used in the pharmaceutical formulation to improve the solubility and bioavailability of poorly-soluble drugs: • PEG 1500 • Poloxamer 407 (HLB˜18) • SLS (HLB˜40) • Kolliphor RH40 (HLB−15) • TPGS (HLB˜13)
CBD Miniaturized Screening Experiment—Micro Evaporation Matrices screened: • API:Soluplus (30:70) • API:Eudragit EPO (30:70) • API:PVP K30 (25:75) • API:Eudragit S100 (25:75) • API:Kollidon VA64 (10:90) • API+Kollidon VA64+PEG1500 (10:85:5) • API+Kollidon VA64+SLS (10:85:5) • API+Kollidon VA64+Kolliphor RH40 (10:85:5) • API+Kollidon VA64+TPGS (10:85:5) • API+Kollidon VA64+Poloxamer 407 (10:85:5)
CBDA Miniaturized Screening Experiment—Micro Evaporation Matrices screened: • API:Eudragit EPO (30:70) • API:PVP K30 (30:70) • API:Soluplus (30:70) • API:Eudragit S100 (30:70) • API:Kollidon VA64 (25:75) • API+Kollidon VA64+PEG1500 (25:70:5) • API+Kollidon VA64+SLS (25:70:5) • API+Kollidon VA64+Kolliphor RH40 (25:70:5) • API+Kollidon VA64+TPGS (25:70:5) • API+Kollidon VA64+Poloxamer 407 (25:70:5)

As to `C=C(C)[C@@H]1CCC(C)=C[C@H]1c1c(O)cc(CCCCC)cc1O` [CBD, cannabidiol, reference compound], the “re-dissolution of API from matrix” value (CBD matrix with Kollidon VA64, at 10 min, 1 mg API per tube) is listed as “complete dissolution”.

Where the note is “CBDA matrix with Kollidon VA64 with addition of SLS, Kolliphor RH40, 10 and 30 min timepoints”, `C=C(C)[C@@H]1CCC(C)=C[C@H]1c1c(O)cc(CCCCC)c(C(=O)O)c1O` [CBDA, cannabidiolic acid] gave a dissolution concentration of 490 to 500 µg/mL.

In turn, `CCCCCc1cc(O)c(C/C=C(\C)CCC=C(C)C)c(O)c1C(=O)O` [CBGA, cannabigerolic acid] returned a dissolution concentration (CBGA matrix with Kollidon VA64 with addition of SLS and Poloxamer 407) of 520 to 550 µg/mL.
